#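 Values below derive from 48-hour exposures of cells grown in 96-well plates, with endpoints linearly interpolated between the two concentrations bracketing the appropriate inhibition level. Here, GI50 denotes the concentration required for 50% inhibition of growth. TGI denotes the concentration required for complete inhibition of growth.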
# Assays:
# Experiment in all cases: DTP human tumour cell line panel, 48 h
# UACC-62 melanoma = test system: UACC-62 melanoma
# ACHN renal = test system: ACHN renal
# HOP-62 NSCLC = test system: HOP-62 NSCLC
# HT29 colon = test system: HT29 colon
# SF-268 CNS = test system: SF-268 CNS
# NCI-H23 lung = test system: NCI-H23 lung
# SNB-19 CNS = test system: SNB-19 CNS
# K-562 leukemia = test system: K-562 leukemia
# HS 578T breast = test system: HS 578T breast
# HOP-92 NSCLC = test system: HOP-92 NSCLC
# RXF 393 renal = test system: RXF 393 renal
# MCF7 breast = test system: MCF7 breast
# SF-539 CNS = test system: SF-539 CNS
# SK-OV-3 ovarian = test system: SK-OV-3 ovarian
# TK-10 renal = test system: TK-10 renal
# OVCAR-8 ovarian = test system: OVCAR-8 ovarian
SMILES,TGI (UACC-62 melanoma),TGI (ACHN renal),TGI (HOP-62 NSCLC),TGI (HT29 colon),TGI (SF-268 CNS),TGI (NCI-H23 lung),TGI (SNB-19 CNS),TGI (K-562 leukemia),TGI (HS 578T breast),TGI (HOP-92 NSCLC),TGI (RXF 393 renal),TGI (MCF7 breast),TGI (SF-539 CNS),TGI (SK-OV-3 ovarian),TGI (TK-10 renal),TGI (OVCAR-8 ovarian),GI50 (HS 578T breast),GI50 (MCF7 breast),GI50 (UACC-62 melanoma),GI50 (HOP-92 NSCLC)
CC(=O)NCCc1c[nH]c2ccc(Cl)cc12,> 100 µM,> 100 µM,> 100 µM,> 100 µM,> 100 µM,> 100 µM,> 100 µM,> 100 µM,> 100 µM,> 100 µM,> 100 µM,> 100 µM,> 100 µM,> 100 µM,> 100 µM,> 100 µM,–,–,–,–
Cc1cc2c(cc1C)[n+](=O)c(C(=O)N1CCN(c3ccc([N+](=O)[O-])cc3)CC1)c(C)n2[O-],> 100 µM,12.7 µM,29.4 µM,> 100 µM,57.1 µM,> 100 µM,> 100 µM,> 100 µM,> 100 µM,> 100 µM,41.3 µM,> 100 µM,35.4 µM,51.2 µM,40.4 µM,> 100 µM,–,–,–,–
N#CC(C#N)=C(N)/C(C#N)=C/c1cc(O)c(O)c(Br)c1,> 100 µM,> 100 µM,> 100 µM,> 100 µM,> 100 µM,> 100 µM,> 100 µM,> 100 µM,> 100 µM,> 100 µM,> 100 µM,> 100 µM,> 100 µM,> 100 µM,> 100 µM,> 100 µM,–,–,–,–
CCCN(CCCCN1C(=O)c2ccccc2C1=O)CC1COc2ccccc2O1 (stereo not drawn),> 100 µM,> 100 µM,> 100 µM,> 100 µM,> 100 µM,> 100 µM,> 100 µM,> 100 µM,> 100 µM,> 100 µM,> 100 µM,> 100 µM,> 100 µM,> 100 µM,> 100 µM,> 100 µM,–,–,–,–
COc1cc2c(cc1OC)C1(c3ccccc3)CN(C2)Cc2cc(OC)c(OC)cc21,> 100 µM,> 100 µM,> 100 µM,> 100 µM,> 100 µM,68.3 µM,> 100 µM,> 100 µM,75.5 µM,> 100 µM,60.3 µM,> 100 µM,41.9 µM,> 100 µM,> 100 µM,> 100 µM,–,–,–,–
Cc1ccc(S(=O)(=O)Oc2ccc(OS(=O)(=O)c3ccc(C)cc3)c3c2C(=O)c2ccccc2C3=O)cc1,> 100 µM,> 100 µM,> 100 µM,> 100 µM,> 100 µM,> 100 µM,> 100 µM,> 100 µM,> 100 µM,> 100 µM,68.6 µM,> 100 µM,> 100 µM,> 100 µM,> 100 µM,> 100 µM,–,–,–,–
CCCCNC(=O)Nc1c(C(N)=O)c2n(c1C(=O)OCC)CCCCC2,> 100 µM,> 100 µM,> 100 µM,> 100 µM,> 100 µM,> 100 µM,> 100 µM,> 100 µM,> 100 µM,> 100 µM,> 100 µM,> 100 µM,> 100 µM,> 100 µM,> 100 µM,> 100 µM,–,–,–,–
COc1ccc(N[C@H](CS(=O)c2ccc(C)cc2)C(F)(F)C(F)(F)F)cc1 (stereo partly drawn),> 100 µM,> 100 µM,> 100 µM,> 100 µM,> 100 µM,> 100 µM,> 100 µM,> 100 µM,> 100 µM,64.5 µM,32.4 µM,> 100 µM,> 100 µM,> 100 µM,> 100 µM,> 100 µM,–,–,–,–
COc1cc(C(N)=O)cc(NC(=O)/C=C/c2ccccc2)c1OC,> 100 µM,> 100 µM,> 100 µM,> 100 µM,> 100 µM,> 100 µM,> 100 µM,> 100 µM,> 100 µM,> 100 µM,> 100 µM,> 100 µM,> 100 µM,> 100 µM,> 100 µM,> 100 µM,–,–,–,–
c1ccc2sc(C3(N4CCCCC4)CCCCCC3)cc2c1,80.4 µM,35 µM,60.9 µM,31.7 µM,46.7 µM,43.3 µM,39.4 µM,31 µM,42 µM,51.8 µM,28.6 µM,31.9 µM,38.2 µM,66.7 µM,49.2 µM,72.5 µM,–,–,–,–
Cc1ccc2[nH]c3[nH]c(=O)[nH]c(=O)c3c2c1,> 100 µM,> 100 µM,> 100 µM,> 100 µM,> 100 µM,> 100 µM,> 100 µM,> 100 µM,> 100 µM,> 100 µM,> 100 µM,> 100 µM,> 100 µM,> 100 µM,> 100 µM,> 100 µM,–,–,–,–
CC1C/C(=N\N(C)C)C(C#N)(C#N)C1(C#N)C#N (stereo not drawn),39.5 µM,23.1 µM,39.4 µM,18.7 µM,24.8 µM,43.1 µM,> 70.6 µM,> 100 µM,> 88.3 µM,11.6 µM,23.9 µM,83.8 µM,34.8 µM,> 67.3 µM,27.6 µM,45 µM,–,–,–,–
CN(C)C=Nc1cccc2cnccc12,> 100 µM,> 100 µM,> 100 µM,> 100 µM,> 100 µM,> 100 µM,> 100 µM,> 100 µM,> 100 µM,> 100 µM,> 100 µM,> 100 µM,> 100 µM,> 100 µM,> 100 µM,> 100 µM,–,–,–,–
CC1OC(OC2C(O)COC(OC3C(C)OC(OC4C(OC(=O)[C@]56CCC(C)(C)C[C@@H]5C5=CCC7[C@@]8(C)C[C@H](O)[C@H](OC9OC(CO)C(O)C(OC%10OC(CO)C(O)C(O)C%10O)C9O)[C@@](C)(CO)[C@@H]8CC[C@@]7(C)[C@]5(C)CC6)OCC(O)C4O)C(O)C3OC3OCC(O)C(O)C3O)C2O)C(O)C(O)C1O (stereo partly drawn),12.6 µM,19.5 µM,20.3 µM,33.9 µM,30 µM,10.4 µM,20.3 µM,> 52.3 µM,34.8 µM,31.1 µM,21.6 µM,43.5 µM,32.1 µM,29.4 µM,22.7 µM,29 µM,–,–,–,–
CC(=O)[O-].CC(=O)[O-].[NH2-].[Pt+2].c1ccncc1,> 100 µM,32.2 µM,> 100 µM,> 100 µM,> 100 µM,> 100 µM,> 100 µM,71.6 µM,> 100 µM,> 100 µM,64.6 µM,65.9 µM,55.1 µM,> 100 µM,> 100 µM,40.1 µM,98.7 µM,19.4 µM,–,–
CC(=O)Nc1cc2c(cc1O)CC[C@@H]1[C@@H]2CC[C@]2(C)[C@@H](O)CC[C@@H]12,> 100 µM,> 100 µM,> 100 µM,> 100 µM,68.8 µM,> 100 µM,> 100 µM,> 100 µM,> 100 µM,> 100 µM,> 100 µM,> 100 µM,> 100 µM,> 100 µM,> 100 µM,> 100 µM,–,–,31.2 µM,–
CC(C)(C)OC(=O)NC(Cc1cnc[nH]1)C(=O)N1CCCC1C(N)=O (stereo not drawn),> 100 µM,> 100 µM,> 100 µM,> 100 µM,> 100 µM,> 100 µM,> 100 µM,> 100 µM,> 100 µM,> 100 µM,92.3 µM,> 100 µM,> 100 µM,> 100 µM,> 100 µM,> 100 µM,–,–,–,–
CCCC(=O)OC[n+]1cccc(-c2c(COC(=O)NC(C)C)c(COC(=O)NC(C)C)c3n2CCC3)c1,61.8 µM,> 100 µM,> 100 µM,> 100 µM,> 100 µM,> 100 µM,> 100 µM,> 100 µM,> 100 µM,> 88.7 µM,> 56.7 µM,> 100 µM,60.9 µM,> 100 µM,> 100 µM,> 100 µM,–,–,–,–
COC(=O)C(Cc1ccccc1I)C1=CCC2(CC1)OCCO2 (stereo not drawn),59.3 µM,> 100 µM,> 100 µM,> 100 µM,> 100 µM,95.1 µM,96.8 µM,> 100 µM,77.5 µM,97.2 µM,42.5 µM,92.7 µM,> 100 µM,> 100 µM,> 100 µM,> 100 µM,–,–,–,–
Cc1nc2ccccc2c(=O)n1NC(=O)c1ccccc1O,> 100 µM,> 100 µM,> 100 µM,> 100 µM,> 100 µM,> 100 µM,> 100 µM,> 100 µM,> 100 µM,> 100 µM,> 100 µM,> 100 µM,> 100 µM,> 100 µM,> 100 µM,> 100 µM,–,–,–,–
O=c1cc(CC(O)(C(F)(F)Cl)C(F)(F)Cl)[nH]n1-c1ccccc1,> 100 µM,> 100 µM,> 100 µM,> 100 µM,> 100 µM,> 100 µM,> 100 µM,> 100 µM,> 100 µM,> 100 µM,> 100 µM,> 100 µM,> 100 µM,> 100 µM,> 100 µM,> 100 µM,–,–,–,–
Cn1cc(C[C@@H](N)C(=O)O)c2ccccc21,> 100 µM,> 100 µM,> 100 µM,> 100 µM,> 100 µM,> 100 µM,> 100 µM,> 100 µM,> 100 µM,> 100 µM,> 100 µM,> 100 µM,> 100 µM,> 100 µM,> 100 µM,> 100 µM,> 100 µM,–,–,> 100 µM
O=c1cc(-c2ccccc2)oc2ccc(Oc3nnnn3-c3ccccc3)cc12,> 100 µM,> 100 µM,> 82.3 µM,> 100 µM,25.3 µM,> 93.2 µM,> 82.6 µM,> 100 µM,> 83 µM,58.1 µM,> 76.1 µM,> 100 µM,> 86.8 µM,> 100 µM,> 100 µM,> 100 µM,–,–,–,–

# Reference: PubChem BioAssay (NCI)
